Here are results for 9 compounds from patent US20220281886A1, “NATRIURETIC PEPTIDE RECEPTOR A AGONISTS USEFUL FOR THE TREATMENT OF CARDIOMETABOLIC DISEASES, KIDNEY DISEASE AND DIABETES” (Merck Sharp & Dohme Corp., priority 2019, published 2022).

pEC50: −log10 of the molar value.

The test addresses T1, hNPRA (Homo sapiens, UniProt P16066).
T1 construct: expressed in transfected cells
T1 sequence (P16066 33-1061): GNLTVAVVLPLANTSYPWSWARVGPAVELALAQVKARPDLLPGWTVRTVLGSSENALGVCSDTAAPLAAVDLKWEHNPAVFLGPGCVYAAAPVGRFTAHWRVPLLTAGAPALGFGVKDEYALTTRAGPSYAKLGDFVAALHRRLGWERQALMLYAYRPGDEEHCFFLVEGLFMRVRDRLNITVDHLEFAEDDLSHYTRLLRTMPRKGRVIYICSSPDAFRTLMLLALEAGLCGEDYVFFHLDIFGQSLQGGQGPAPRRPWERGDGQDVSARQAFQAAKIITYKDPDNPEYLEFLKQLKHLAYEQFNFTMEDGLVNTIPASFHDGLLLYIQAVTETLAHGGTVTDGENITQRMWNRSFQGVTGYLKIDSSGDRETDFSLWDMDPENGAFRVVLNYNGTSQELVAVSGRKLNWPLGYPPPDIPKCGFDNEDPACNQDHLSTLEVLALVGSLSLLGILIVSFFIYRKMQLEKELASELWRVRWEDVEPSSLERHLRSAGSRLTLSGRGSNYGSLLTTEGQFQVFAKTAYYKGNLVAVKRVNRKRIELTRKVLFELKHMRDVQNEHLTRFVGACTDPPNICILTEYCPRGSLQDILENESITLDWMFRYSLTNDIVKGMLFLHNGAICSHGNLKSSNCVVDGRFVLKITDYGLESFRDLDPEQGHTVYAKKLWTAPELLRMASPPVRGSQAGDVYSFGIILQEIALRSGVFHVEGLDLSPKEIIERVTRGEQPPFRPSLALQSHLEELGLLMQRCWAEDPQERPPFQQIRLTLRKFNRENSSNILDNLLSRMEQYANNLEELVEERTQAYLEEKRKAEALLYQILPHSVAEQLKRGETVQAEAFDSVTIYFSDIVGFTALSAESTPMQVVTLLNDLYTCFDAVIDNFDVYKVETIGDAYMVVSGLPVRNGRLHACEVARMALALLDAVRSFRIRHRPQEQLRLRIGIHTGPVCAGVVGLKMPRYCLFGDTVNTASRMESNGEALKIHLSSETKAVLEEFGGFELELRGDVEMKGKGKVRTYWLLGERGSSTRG
Briefly: NPRA Functional Cell Assay (cGMP HTRF). Type of test: cell-based. To be noted: Human NPRA HEK JumpIn stable cells; cGMP by HTRF after 1 hour at 37° C.; 10-point dose response. Put shortly: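 HEK JumpIn cells stably expressing human, rat or dog NPRA incubated 1 hour at 37° C with compound (10-point titration) in Opti-MEM buffer with 100 uM IBMX and 100 uM RO20. cGMP measured by HTRF against an on-plate calibration curve; EC50 from 4-parameter fit, positive control 10 nM rat-ANP (rat) or 50 nM h-ANP (human, dog).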
For orientation: pEC50 means the EC50 on a negative log10 scale, so that one unit is a factor of ten. Read a low pEC50 as a high EC50. `COC(=O)C1CCN(CC[C@@H](NC(=O)c2cc(F)c3nc4c(cc3c2)C[C@](F)(C(C)C)CC4)c2ccc(-c3cnc(O)c(F)c3)cc2)CC1` [Example 24, methyl 1-((R)-3-((S)-4,7-difluoro-7-isopropyl-5,6,7,8-tetrahydroacridine-2-carboxamido)-3-(4-(5-fluoro-6-hydroxypyridin-3-yl)phenyl)propyl)piperidine-4-carboxylate] gave a pEC50 of 6.63.

Turning to `CC(C)[C@]1(F)CCc2nc3c(F)cc(C(=O)N[C@H](CCN4CCC(C(=O)O)CC4)c4ccc(-c5cnc(O)c(F)c5)cc4)cc3cc2C1` [Example 25, 1-((R)-3-((S)-4,7-difluoro-7-isopropyl-5,6,7,8-tetrahydroacridine-2-carboxamido)-3-(4-(5-fluoro-6-hydroxypyridin-3-yl)phenyl)propyl)piperidine-4-carboxylic acid], the pEC50 was 6.78.

As for `CC(C)[C@]1(F)CCc2nc3c(F)cc(C(=O)N[C@H](CCN4CCC(O)CC4)c4ccc(NS(=O)(=O)N(C)C)nc4)cc3cc2C1` [Example 26, (S)-N-((R)-1-(6-((N,N-dimethylsulfamoyl)amino)pyridin-3-yl)-3-(4-hydroxypiperidin-1-yl)propyl)-4,7-difluoro-7-isopropyl-5,6,7,8-tetrahydroacridine-2-carboxamide], the negative-log EC50 (pEC50) was 6.61.

Take `CC(C)[C@]1(F)CCc2nc3c(F)cc(C(=O)N[C@H](CCN4CCC(O)CC4)c4cnc(NS(=O)(=O)N(C)C)c(F)c4)cc3cc2C1` [Example 27, (S)-N-((R)-1-(6-((N,N-dimethylsulfamoyl)amino)-5-fluoropyridin-3-yl)-3-(4-hydroxypiperidin-1-yl)propyl)-4,7-difluoro-7-isopropyl-5,6,7,8-tetrahydroacridine-2-carboxamide]: the negative-log EC50 (pEC50) was 5.61. This pEC50 is 1.00 log units lower than that of the compound before.

Consider `CC(C)[C@]1(F)CCc2nc3c(F)cc(C(=O)N[C@H](CCN4CCC(O)CC4)c4ccc(N5CC(=O)NC5=O)nc4)cc3cc2C1` [Example 28], for which the pEC50 was 6.49. This pEC50 is 0.88 log units higher than that of the compound before.

`CC1C(=O)NC(=O)N1c1ccc([C@@H](CCN2CCC(O)CC2)NC(=O)c2cc(F)c3nc4c(cc3c2)C[C@](F)(C(C)C)CC4)cn1` (stereo partly drawn) [Example 29, (7S)-4,7-difluoro-N-((1R)-3-(4-hydroxypiperidin-1-yl)-1-(6-(5-methyl-2,4-dioxoimidazolidin-1-yl)pyridin-3-yl)propyl)-7-isopropyl-5,6,7,8-tetrahydroacridine-2-carboxamide] showed a pEC50 of 6.56.

Consider `CC(C)[C@]1(F)CCc2nc3c(F)cc(C(=O)N[C@H](CCN4CCC(O)CC4)c4ccc(-c5cn[nH]c5)nc4)cc3cc2C1` [Example 32, (S)-N-((R)-1-(6-(1H-pyrazol-4-yl)pyridin-3-yl)-3-(4-hydroxypiperidin-1-yl)propyl)-4,7-difluoro-7-isopropyl-5,6,7,8-tetrahydroacridine-2-carboxamide], for which the pEC50 was 6.66.

`CC(C)[C@]1(F)CCc2nc3c(F)cc(C(=O)N[C@H](CCN4CCC(O)CC4)c4ccc(N5CC[C@@H](O)[C@H](F)C5)nc4)cc3cc2C1` [Example 33, (S)-4,7-difluoro-N-((R)-1-(6-((3R,4R)-3-fluoro-4-hydroxypiperidin-1-yl)pyridin-3-yl)-3-(4-hydroxypiperidin-1-yl)propyl)-7-isopropyl-5,6,7,8-tetrahydroacridine-2-carboxamide] gave a pEC50 of 6.06.

Consider `CC(C)[C@]1(F)CCc2nc3c(F)cc(C(=O)N[C@H](CCN4CCC(O)CC4)c4ccc(N5CC6CCC5CO6)nc4)cc3cc2C1` (stereo partly drawn) [Example 34, (7S)-N-((1R)-1-(6-(2-oxa-5-azabicyclo[2.2.2]octan-5-yl)pyridin-3-yl)-3-(4-hydroxypiperidin-1-yl)propyl)-4,7-difluoro-7-isopropyl-5,6,7,8-tetrahydroacridine-2-carboxamide], for which the pEC50 was 5.55.
